Experimental data published in US20230303562A1, “PYRAZOLE COMPOUND AND PREPARATION METHOD THEREFOR AND USE THEREOF” (Sichuan Kelun-Biotech Biopharmaceutical Co., Ltd., priority 2020, published 2023).
Values belong to the molecule of their own block, whether it stands above or below them.

Columns and labels:
[1] = Pharmacokinetics (PK) study in Balb/c mice; type: in vivo; details: female Balb/c mice; for bioavailability: mouse, read-out: F (bioavailability); for bioavailability / F (bioavailability): PO 10 mg/kg compared with IV 1 mg/kg
Protocol: The example compounds were administered to female Balb/c mice via intravenous injection (IV) and gastric perfusion (PO), respectively, and their pharmacokinetic properties were investigated. The administered doses for IV and PO were 1 mg/kg and 10 mg/kg, respectively. The solvent for IV was 5% DMSO+5% Solutol (15-hydroxystearic acid polyethylene glycol ester)+90% normal saline, the solvent for PO was 0.5% MC ([…] methylcellulose). Whole blood samples were collected at various time points after IV and PO administration, and subjected to EDTA-K2 anticoagulation before test.
Whole blood samples were processed by precipitating proteins and then subjected to LC-MS/MS analysis. The pharmacokinetic parameters were calculated by the non-compartmental model using WinNonlin 6.3 software, and the results were shown in Table 6 below.

[2] = target: TGFβR1 (Homo sapiens (Human), UniProt P36897); assay: In vitro enzymatic activity inhibition test (TGFβR1), ADP-Glo Kinase Detection Kit; type: biochemical; details: estimated from inhibition at 1000, 100, 10 nM
Protocol: Experimental method: According to the instructions of ADP-Glo™ Kinase Detection Kit (Promega), the inhibitory effect of the compounds of the present invention on the enzymatic activity of TGFβR1 was determined, and the steps were as follows:
TGFβR1 enzyme were pre-incubated with different concentrations of test compounds (1000 nM, 100 nM, 10 nM) at 30° C. for 30 min, TGFβR1 peptide and adenosine triphosphate (ATP) were added to initiate the reaction. The incubation was performed at 30° C. for 3 h, followed by an addition of ADP-Glo™ reagent and incubated at room temperature for 90 min, kinase detection reagent was then added. Chemiluminescence signal values were detected after incubation at room temperature for another 30 min. Taking the solvent group (DMSO) as the negative control and the buffer group (without TGFβR1 enzyme) as the blank control, the percent inhibition rates of different concentrations of compounds were calculated according to the following formula: […]
When the percent inhibition rate was between 30% and 80%, the median inhibitory concentration (IC50) or range of the compound was calculated according to the following formula:
IC50=X×(1−percent inhibition rate (%))/percent inhibition rate (%), wherein X is the concentration of the compound at which the inhibition rate is between 30% and 80%.

[3] = target: TGFβR2 (Homo sapiens (Human), UniProt P37173); assay: In vitro enzymatic activity inhibition test (TGFβR2), ADP-Glo Kinase Detection Kit; type: biochemical; details: MBP substrate, estimated from inhibition at 1000, 100, 10 nM
Protocol: The chemiluminescence signal values were detected after incubation at room temperature for another 30 min.

[4] = target: hERG (Homo sapiens (Human), UniProt Q12809); assay: Biochemical hERG inhibition test (Predictor hERG fluorescence polarization kit); type: binding; details: competition with Tracer, tested at 10 μM and 1 μM
Protocol: Kit: Predictor™ hERG fluorescence polarization detection kit (ThermoFisher), the kit contained the following components: positive control compound hERG potassium channel blocker E4031; hERG cell membrane; affinity tracer Tracer; and hERG buffer.
hERG concentration: 1×; Tracer concentration: 1 nM; incubation time: 2 h; BMG PHERAstar FS FP.
The test was carried out according to the kit instructions, and the steps were as follows:
Positive control group: 30 μM positive control compound E4031 was used to replace the test compound, and the experimental method was the same as that of the test group.
Blank control group: hERG buffer was used to replace the test compound without the addition of hERG cell membrane, and the experimental method was the same as that of the test group.
According to the data ratio, the percent inhibition rates (%) of the compounds of the present invention to hERG at different concentrations were calculated, and the ranges of the half inhibitory concentration (IC50) of the compounds were determined.

Sequence of TGFβR2 (P37173 23-567): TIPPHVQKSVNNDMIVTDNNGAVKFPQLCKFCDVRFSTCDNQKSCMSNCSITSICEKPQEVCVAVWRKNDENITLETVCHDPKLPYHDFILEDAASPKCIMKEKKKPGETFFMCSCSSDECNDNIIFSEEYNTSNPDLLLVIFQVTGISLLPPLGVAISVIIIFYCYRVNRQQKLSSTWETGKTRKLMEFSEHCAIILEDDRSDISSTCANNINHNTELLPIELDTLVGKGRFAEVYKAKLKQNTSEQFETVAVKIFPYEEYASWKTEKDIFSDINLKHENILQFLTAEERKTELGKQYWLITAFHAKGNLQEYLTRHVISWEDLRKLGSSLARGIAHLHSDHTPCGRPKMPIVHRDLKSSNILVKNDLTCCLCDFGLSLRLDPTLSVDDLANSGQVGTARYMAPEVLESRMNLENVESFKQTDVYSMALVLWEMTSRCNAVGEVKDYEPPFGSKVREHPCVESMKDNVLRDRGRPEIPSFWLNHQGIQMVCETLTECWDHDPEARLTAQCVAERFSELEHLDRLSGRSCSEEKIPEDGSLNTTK
Sequence of hERG (Q12809 whole entry): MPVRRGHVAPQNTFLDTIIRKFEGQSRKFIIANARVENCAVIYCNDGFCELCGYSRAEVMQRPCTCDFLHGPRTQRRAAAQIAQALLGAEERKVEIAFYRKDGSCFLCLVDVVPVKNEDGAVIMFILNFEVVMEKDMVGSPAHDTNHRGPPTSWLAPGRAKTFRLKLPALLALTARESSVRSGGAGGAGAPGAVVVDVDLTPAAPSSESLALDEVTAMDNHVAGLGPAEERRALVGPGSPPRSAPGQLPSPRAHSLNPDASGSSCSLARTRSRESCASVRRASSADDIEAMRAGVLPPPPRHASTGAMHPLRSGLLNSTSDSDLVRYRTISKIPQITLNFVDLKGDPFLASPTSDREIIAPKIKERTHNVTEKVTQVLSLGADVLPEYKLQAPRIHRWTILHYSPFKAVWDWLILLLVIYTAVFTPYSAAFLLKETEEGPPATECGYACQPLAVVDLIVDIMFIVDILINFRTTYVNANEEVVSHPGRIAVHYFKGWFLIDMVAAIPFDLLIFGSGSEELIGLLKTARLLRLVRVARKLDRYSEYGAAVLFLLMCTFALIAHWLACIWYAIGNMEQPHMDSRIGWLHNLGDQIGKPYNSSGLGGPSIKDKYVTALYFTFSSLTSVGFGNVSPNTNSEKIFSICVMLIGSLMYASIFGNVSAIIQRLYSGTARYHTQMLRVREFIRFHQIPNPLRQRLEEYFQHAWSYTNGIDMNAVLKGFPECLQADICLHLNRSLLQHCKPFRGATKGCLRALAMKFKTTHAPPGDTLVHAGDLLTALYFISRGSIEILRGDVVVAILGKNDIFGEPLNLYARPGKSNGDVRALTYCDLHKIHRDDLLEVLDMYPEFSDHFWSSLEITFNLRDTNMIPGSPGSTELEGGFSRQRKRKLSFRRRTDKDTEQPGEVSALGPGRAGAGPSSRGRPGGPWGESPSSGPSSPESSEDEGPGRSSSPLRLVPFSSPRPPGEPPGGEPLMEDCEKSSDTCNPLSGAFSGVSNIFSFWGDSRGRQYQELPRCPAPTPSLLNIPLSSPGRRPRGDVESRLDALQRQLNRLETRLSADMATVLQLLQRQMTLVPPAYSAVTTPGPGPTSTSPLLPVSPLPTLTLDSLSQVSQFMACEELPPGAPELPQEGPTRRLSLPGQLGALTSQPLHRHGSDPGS
Sequence of TGFβR1 (P36897 34-503): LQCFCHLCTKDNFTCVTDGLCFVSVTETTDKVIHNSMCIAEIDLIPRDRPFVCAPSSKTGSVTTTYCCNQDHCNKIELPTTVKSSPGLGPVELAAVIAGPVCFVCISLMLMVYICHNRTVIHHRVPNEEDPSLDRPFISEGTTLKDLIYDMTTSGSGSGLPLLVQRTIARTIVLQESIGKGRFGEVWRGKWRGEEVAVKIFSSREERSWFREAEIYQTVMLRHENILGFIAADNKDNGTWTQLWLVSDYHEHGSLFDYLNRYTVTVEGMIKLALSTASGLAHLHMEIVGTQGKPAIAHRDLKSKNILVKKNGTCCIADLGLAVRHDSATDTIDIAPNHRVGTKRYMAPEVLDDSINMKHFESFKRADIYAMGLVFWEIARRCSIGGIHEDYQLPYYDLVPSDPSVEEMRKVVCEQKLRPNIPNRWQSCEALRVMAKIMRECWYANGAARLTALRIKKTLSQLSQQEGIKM

- T1/2 ([1]; PO, 10 mg/kg, whole blood): 108 ± 21 min
- bioavailability ([1]; whole blood): 98.1%
Structure (SMILES): CNc1cc(-c2ccn3ncc(C(N)=O)c3c2)n(-c2cccc(C)n2)n1 [Example 8, 5-(3-(methylamino)-1-(6-methylpyridin-2-yl)-1H-pyrazol-5-yl)pyrazolo[1,5-a]pyridine-3-carboxamide]

- T1/2 ([1]; PO, 10 mg/kg, whole blood): 31.2 ± 10.8 min
- bioavailability ([1]; whole blood): 52.1%
Structure (SMILES): Cc1cccc(-n2nccc2-c2ccn3ncc(C(N)=O)c3c2)n1 [Example 12, 5-(1-(6-methylpyridin-2-yl)-1H-pyrazol-5-yl)pyrazolo[1,5-a]pyridine-3-carboxamide]

Structure (SMILES): Cc1cccc(-n2nc3c(c2-c2ccn4ncc(C(N)=O)c4c2)CCC3)n1 [Example 6, 5-[2-(6-methylpyridin-2-yl)-2,4,5,6-tetrahydrocyclopenteno[c]pyrazol-3-yl]pyrazolo[1,5-a]pyridine-3-carboxamide]
- AUClast ([1]; IV, 1 mg/kg, whole blood): 578 ± 4 ng·h/mL
- Cl ([1]; IV, 1 mg/kg, whole blood): 28.4 ± 0.3 mL/min/kg
- Cmax ([1]; IV, 1 mg/kg, whole blood): 1163 ± 58 ng/mL
- F (bioavailability) [1]: 61.4 ± 9.5%
- F (bioavailability) ([1]; listed as Example VI): 61.4%
- AUClast ([1]; PO, 10 mg/kg, whole blood): 3586 ± 563 ng·h/mL
- Cmax ([1]; PO, 10 mg/kg, whole blood): 7440 ± 226 ng/mL
- T1/2 ([1]; PO, 10 mg/kg, whole blood): 27.6 ± 11.4 min
- T1/2 ([1]; PO, 10 mg/kg, whole blood, listed as Example VI): 27.6 min

- IC50 [2]: 48.6 ± 18.6 nM
- IC50 [3]: > 1000 nM
Structure (SMILES): Cc1cccc(-n2nccc2-c2ccc3ncsc3c2)n1 [Example 1, 6-(1-(6-methylpyridin-2-yl)-1H-pyrazol-5-yl)benzo[d]thiazole]
- IC50 [4]: > 10 µM
